{"source": "patent US11175296B2", "about": "“Methods of diagnosing and treating cancer comprising ME1” (Washington University, priority 2016, dated 2021)", "key": {"[1]": {"tested_on": "SYO-1 and FUJI cell lines", "assay": "Treatment with G6PD inhibitor DHEA and DHEA analogs, cell death", "format": "cell-based", "details": "over a course of 48 hours", "experimental": "(§1) For FACS analysis, cell lines were plated at 200,000 cells per well, and incubated in various culture conditions. Media was collected in a FACS tube and samples were washed with PBS. The PBS was transferred into the FACS tube, and 0.5 mL 0.05% Trypsin/EDTA was added to each well. Samples were incubated for 5 minutes at 37° C., and diluted with 0.5 mL complete media before being transferred to the FACS tube. Wells were washed once with PBS, transferred to the FACS tube, and centrifuged at 800 g for 5 minutes at room temperature. The supernatant was aspirated off, and pellets were resuspended in 200 μL PBS (unstained control samples used for gating) or 200 μL of 1 μg/mL propidium iodide dissolved in PBS. Samples were run on a FAScan instrument and fluorescence analyzed on the Blue FL2 channel. Data was further analyzed using FloJo software.\n(§2) For the evaluation of glucose deprivation alone and under additional conditions, cell lines were plated in a 6-well format at 200,000 cells per well on day 1. SYO was cultured and plated in Dulbecco's Modified Eagle Medium (DMEM) with 10% FBS and penicillin/streptomycin (include additional glucose concentration), which FUJI was cultured in RPMI medium with 10% FBS and penicillin/streptomycin. […] Samples were then ran and fluorescence analyzed via Blue FL2 channel on a FAScan instrument. […]"}, "SYO-1 xenograft tumor": {"tested_on": "SYO-1 xenograft tumor", "assay": "SYO-1 xenograft in nude athymic mice, tumor size", "format": "in vivo", "details": "1 mg/day for 12 days", "experimental": "Sixty nude athymic mice (Nu/J homozygous Cat#002019, The Jackson Lab) were xenografted with 1×10^6 SYO-1 cells that had been resuspended in 1×PBS 30% Matrigel (Corning, Inc., Cat# CB-40234). Mice were anesthetized with 1-2% isofluorane and injected at the left flank. The mice were observed until each tumor size was 100 mm3 by caliper measurement, at which point each individual mouse began daily injections of DHEA 1 mg/30 uL ( ), SWV-49s 3.75 mM, SWV-273.75 mM, SV-119 3.75 mM, SWV-27/SV-119 3.75 mM, or control vehicle Cremiphor. All agents were suspended in Cremiphor. Treatment or placebo injections continued for a total of 12 days. Daily caliper and weight measurements for a total of 30 days were undertaken for each cohort. Mice were sacrificed appropriately by “ ” guidelines and after the conclusion of the in vivo experiment."}, "[2]": {"tested_on": "SYO-1 and FUJI synovial sarcoma (SS) cell lines", "assay": "Pretreatment before glucose deprivation, protection from cell death (PI FACS)", "format": "cell-based", "experimental": "During the routine cell culture splitting procedure, cell lines were plated in 6 well plates at 200,000 cells in 2 mL media. Samples were incubated at 37° C. for duration of experiment. Samples were washed with PBS and detached with 0.05% Trypsin/EDTA. Aliquots were diluted 1:2 with Trypan Blue (Sigma) and a viable cell count was obtained using a hemacytometer. For glucose and glutamine deprivation experiments, 200,000 cells were plated in standard media and incubated overnight. Samples were washed 3 times with 1×DPBS (Gibco), and the media was changed to DMEM (control samples) or glucose/glutamine free DMEM (experimental samples). Cell counts were taken as previously described at 2, 4, 6, and 8 hours after the media was changed, and normalized to cell counts taken from growth samples counted at the time the media was changed.\nas §1\nCell viability was determined in tissue culture experiments by the trypan blue dye exclusion test. For the evaluation of glucose deprivation, cell lines were plated in a 6-well format at 200,000 cells per well on day 1. SYO was cultured and plated in Dulbecco's Modified Eagle Medium (DMEM) with 10% FBS and penicillin/streptomycin (include additional glucose concentration), which FUJI was cultured in RPMI medium with 10% FBS and penicillin/streptomycin. The following day, glucose-containing media was removed, and each well was washed with 1-2 mL of phosphate buffered saline (PBS) three times to ensure elimination of residual glucose. Glucose-free media was then replaced in each well for the duration of the experiment. At the end point, the glucose-free media was removed and each well washed with 1 mL of PBS. One-half milliliter of trypsin 0.05% was then applied to each well, later aggressively resuspended in 0.5 mL of media for a total cell volume of 1 mL. Twenty microliters of each well was then counted via hemocytometer, excluding those non-viable cells that were positive for trypan blue uptake and/or fragmented.\nFor the evaluation of glucose deprivation alone and under additional conditions, cell lines were plated in a 6-well format at 200,000 cells per well on day 1. SYO was cultured and plated in Dulbecco's Modified Eagle Medium (DMEM) with 10% FBS and penicillin/streptomycin (include additional glucose concentration), which FUJI was cultured in RPMI medium with 10% FBS and penicillin/streptomycin. The following day, glucose-containing media was removed, and each well was washed with 1-2 mL of phosphate buffered saline (PBS) three times to ensure elimination of residual glucose. Glucose-free media was then replaced in each well for the duration of the experiment. […]"}, "[3]": {"tested_on": "SYO-1 and FUJI cell lines", "assay": "Erastin / sigma-2 erastin treatment, cell death", "format": "cell-based", "details": "in as little as 8 hours, compared to control lines SKLMS-1 and MG63", "experimental": "as §1, §2"}, "[4]": {"assay": "Phase I open-label study of olaratumab and doxorubicin in patients with advanced soft tissue sarcoma (PK, DDI, safety)", "experimental": "Patients with metastatic or locally advanced STS not amenable to treatment with surgery or curative radiotherapy, aged years with an ECOG PS of 0-2 and documented LVE fraction ≥50% were included. The primary objective was to assess the effect of Olara on the PK of Dox. Secondary objectives were to further characterize the PK and safety profiles of Olara alone and in combination with Dox. Drug-drug interaction (DDI) was assessed in 21-day cycles, where patients received each drug alone (Cycle 1) then in combination (Cycle 2). In Cycles 3-8, patients with clinical benefit could continue treatment with Olara+Dox. 15-mg/kg Olara was given IV over ˜60 min; 75-mg/m^2 Dox was given IV over ˜15 min."}, "[5]": {"details": "pretreatment one hour prior to glucose-free media change"}}, "note": "Where a SMILES comes first, the peptide text is derived from it. The star is where a group is joined. Cbz = O=C(OCc1ccccc1)*; CH2F = FC*"}
{"molecule": "C[C@]12CC[C@H](O)CC1=CC[C@@H]1[C@@H]2CC[C@]2(C)C(=O)CC[C@@H]12", "note": "[DHEA, dehydroepiandrosterone]", "values": [{"measurement": "cell death", "setting": "[1]", "result": "varying but significant cell death"}, {"measurement": "tumor size", "setting": "SYO-1 xenograft tumor", "result": "dramatic decrease in tumor size"}, {"measurement": "tolerability of dose and regimen", "setting": "SYO-1 xenograft tumor; murine model", "result": "well-tolerated"}]}
{"molecule": "CC(=O)N[C@@H](CS)C(=O)O", "note": "[NAC]", "values": [{"measurement": "protection from cell death under glucose deprivation", "setting": "[2]; 10 mM, pretreated one hour prior to glucose deprivation, 2 and 6 hours", "result": "protection from cell death was noted"}]}
{"molecule": "CC(NC(=O)C(NC(=O)OCc1ccccc1)C(C)C)C(=O)NC(CC(=O)O)C(=O)CF", "note": "(stereo not drawn) [ZVAD] (Cbz-Val-Ala-Asp-CH2F; configuration not given here)", "values": [{"measurement": "protection from cell death under glucose deprivation", "setting": "[2]; [5]", "result": "did not result in protection from cell death"}]}
{"molecule": "Cc1c(O)c(=O)ccn1C", "note": "[deferiprone]", "values": [{"measurement": "protection from cell death under glucose deprivation", "setting": "[2]; pretreated one hour prior to glucose deprivation, acute time course of 2-6 hours", "result": "significant protection from cell death"}]}
{"molecule": "CCOc1ccccc1-n1c(C(C)N2CCN(C(=O)COc3ccc(Cl)cc3)CC2)nc2ccccc2c1=O", "note": "(stereo not shown) [erastin]", "values": [{"measurement": "cell death", "setting": "[3]", "result": "approximately 40%"}]}
{"molecule": "CCOC(=O)c1ccc(NC2CCCCC2)c(N)c1", "note": "[ferrostatin]", "values": [{"measurement": "protection from cell death under glucose deprivation", "setting": "[2]; [5]", "result": "significant protection from glucose-deprivation mediated cell death"}]}
{"molecule": "CN1C(=O)C(Cc2c[nH]c3ccccc23)NC1=S", "note": "(stereo not shown) [necrostatin]", "values": [{"measurement": "protection from cell death under glucose deprivation", "setting": "[2]; [5]", "result": "did not result in protection from cell death"}]}
{"molecule": "Olaratumab", "values": [{"measurement": "effect on systemic exposure to Dox", "setting": "[4]; IV infusion, both agents given in combination", "result": "did not have a clinically relevant effect"}, {"measurement": "CL", "setting": "[4]; human, in vivo", "result": 0.0218, "unit": "L/h"}, {"measurement": "mean CL", "setting": "[4]; human, in vivo", "result": 0.0259, "unit": "L/h"}, {"measurement": "mean Cmax", "setting": "[4]; human, in vivo", "result": 393, "unit": "µg/mL"}, {"measurement": "median tmax post start of infusion", "setting": "[4]; human, in vivo", "result": "~2.8", "unit": "h"}, {"measurement": "time of Cmax post start of infusion", "setting": "[4]; human, in vivo", "result": "~2", "unit": "h"}, {"measurement": "mean Cmax", "setting": "[4]; human, in vivo, iv, 15 mg/kg", "result": 293, "unit": "µg/mL"}]}
